Measured values reported in PMC10408569, “Recruitment of hexahydroquinoline as anticancer scaffold targeting inhibition of wild and mutants EGFR (EGFR^WT, EGFR^T790M, and EGFR^L858R)” (Journal of Enzyme Inhibition and Medicinal Chemistry, 2023).

Legend:
HL-60(TB) = assay: NCI-60 anticancer screening (SRB); type: cell-based; conditions: Homo sapiens, leukemia, one dose 10 μM, read-out: Growth Inhibition Percentage (GI %)
MOLT-4 = assay: NCI-60 anticancer screening (SRB); type: cell-based; conditions: Homo sapiens; MOLT-4, leukemia; one dose 10 μM; read-out: Growth Inhibition Percentage (GI %)
HOP-62 = assay: NCI-60 anticancer screening (SRB); type: cell-based; conditions: Homo sapiens; HOP-62, NSC lung cancer; one dose 10 μM; read-out: Growth Inhibition Percentage (GI %)
NCI-H322M = assay: NCI-60 anticancer screening (SRB); type: cell-based; conditions: Homo sapiens, NSC lung cancer, one dose 10 μM, read-out: Growth Inhibition Percentage (GI %)
NCI-H460 = assay: NCI-60 anticancer screening (SRB); type: cell-based; conditions: Homo sapiens; NCI-H460, NSC lung cancer; one dose 10 μM; read-out: Growth Inhibition Percentage (GI %)
NCI-H522 = assay: NCI-60 anticancer screening (SRB); type: cell-based; conditions: Homo sapiens; NCI-H522, NSC lung cancer; one dose 10 μM; read-out: Growth Inhibition Percentage (GI %)
COLO 205 = assay: NCI-60 anticancer screening (SRB); type: cell-based; conditions: Homo sapiens; COLO 205, colon cancer; one dose 10 μM; read-out: Growth Inhibition Percentage (GI %)
HCC-2998 = assay: NCI-60 anticancer screening (SRB); type: cell-based; conditions: Homo sapiens; HCC-2998, colon cancer; one dose 10 μM; read-out: Growth Inhibition Percentage (GI %)
HT29 = assay: NCI-60 anticancer screening (SRB); type: cell-based; conditions: Homo sapiens, HT-29; HT29, colon cancer; one dose 10 μM; read-out: Growth Inhibition Percentage (GI %)
KM 12 = assay: NCI-60 anticancer screening (SRB); type: cell-based; conditions: Homo sapiens, KM12; KM 12, colon cancer; one dose 10 μM; read-out: Growth Inhibition Percentage (GI %)
SW-620 = assay: NCI-60 anticancer screening (SRB); type: cell-based; conditions: Homo sapiens; SW-620, colon cancer; one dose 10 μM; read-out: Growth Inhibition Percentage (GI %)
LOX IMVI = assay: NCI-60 anticancer screening (SRB); type: cell-based; conditions: Homo sapiens, melanoma, one dose 10 μM, read-out: Growth Inhibition Percentage (GI %)
M14 = assay: NCI-60 anticancer screening (SRB); type: cell-based; conditions: Homo sapiens; M14, melanoma; one dose 10 μM; read-out: Growth Inhibition Percentage (GI %)
SK-MEL-2 = assay: NCI-60 anticancer screening (SRB); type: cell-based; conditions: Homo sapiens; SK-MEL-2, melanoma; one dose 10 μM; read-out: Growth Inhibition Percentage (GI %)
SK-MEL-5 = assay: NCI-60 anticancer screening (SRB); type: cell-based; conditions: Homo sapiens; SK-MEL-5, melanoma; one dose 10 μM; read-out: Growth Inhibition Percentage (GI %)
UACC-62 = assay: NCI-60 anticancer screening (SRB); type: cell-based; conditions: Homo sapiens; UACC-62, melanoma; one dose 10 μM; read-out: Growth Inhibition Percentage (GI %)
OVCAR-3 = assay: NCI-60 anticancer screening (SRB); type: cell-based; conditions: Homo sapiens; OVCAR-3, ovarian cancer; one dose 10 μM; read-out: Growth Inhibition Percentage (GI %)
OVCAR-4 = assay: NCI-60 anticancer screening (SRB); type: cell-based; conditions: Homo sapiens; OVCAR-4, ovarian cancer; one dose 10 μM; read-out: Growth Inhibition Percentage (GI %)
NCI/ADR-RES = assay: NCI-60 anticancer screening (SRB); type: cell-based; conditions: Homo sapiens, ovarian cancer, one dose 10 μM, read-out: Growth Inhibition Percentage (GI %)
786-0 = assay: NCI-60 anticancer screening (SRB); type: cell-based; conditions: Homo sapiens; 786-0, renal cancer; one dose 10 μM; read-out: Growth Inhibition Percentage (GI %)
A498 = assay: NCI-60 anticancer screening (SRB); type: cell-based; conditions: Homo sapiens; A498, renal cancer; one dose 10 μM; read-out: Growth Inhibition Percentage (GI %)
CAKI-1 = assay: NCI-60 anticancer screening (SRB); type: cell-based; conditions: Homo sapiens; CAKI-1, renal cancer; one dose 10 μM; read-out: Growth Inhibition Percentage (GI %)
RXF 393 = assay: NCI-60 anticancer screening (SRB); type: cell-based; conditions: Homo sapiens; RXF 393, renal cancer; one dose 10 μM; read-out: Growth Inhibition Percentage (GI %)
SN 12C = assay: NCI-60 anticancer screening (SRB); type: cell-based; conditions: Homo sapiens, SN12C; SN 12C, renal cancer; one dose 10 μM; read-out: Growth Inhibition Percentage (GI %)
TK-10 = assay: NCI-60 anticancer screening (SRB); type: cell-based; conditions: Homo sapiens; TK-10, renal cancer; one dose 10 μM; read-out: Growth Inhibition Percentage (GI %)
UO-31 = assay: NCI-60 anticancer screening (SRB); type: cell-based; conditions: Homo sapiens; UO-31, renal cancer; one dose 10 μM; read-out: Growth Inhibition Percentage (GI %)
MCF7 = assay: NCI-60 anticancer screening (SRB); type: cell-based; conditions: Homo sapiens; MCF7, breast cancer; one dose 10 μM; read-out: Growth Inhibition Percentage (GI %)
MDA-MB-231 = assay: NCI-60 anticancer screening (SRB); type: cell-based; conditions: Homo sapiens; MDA-MB-231, breast cancer; one dose 10 μM; read-out: Growth Inhibition Percentage (GI %)
HS 578T = assay: NCI-60 anticancer screening (SRB); type: cell-based; conditions: Homo sapiens; HS 578T, breast cancer; one dose 10 μM; read-out: Growth Inhibition Percentage (GI %)
BT-549 = assay: NCI-60 anticancer screening (SRB); type: cell-based; conditions: Homo sapiens; BT-549, breast cancer; one dose 10 μM; read-out: Growth Inhibition Percentage (GI %)
T-47D = assay: NCI-60 anticancer screening (SRB); type: cell-based; conditions: Homo sapiens, T47D, breast cancer, one dose 10 μM, read-out: Growth Inhibition Percentage (GI %)
NCI 60 cancer cell lines = assay: NCI-60 anticancer screening (SRB), whole panel; type: cell-based, human; conditions: mean across the NCI-60 panel; one dose 10 μM

| SMILES | inhibition at 10 µM (HL-60(TB)) [%] | inhibition at 10 µM (MOLT-4) [%] | inhibition at 10 µM (HOP-62) [%] | inhibition at 10 µM (NCI-H322M) [%] | inhibition at 10 µM (NCI-H460) [%] | inhibition at 10 µM (NCI-H522) [%] | inhibition at 10 µM (COLO 205) [%] | inhibition at 10 µM (HCC-2998) [%] | inhibition at 10 µM (HT29) [%] | inhibition at 10 µM (KM 12) [%] | inhibition at 10 µM (SW-620) [%] | inhibition at 10 µM (LOX IMVI) [%] | inhibition at 10 µM (M14) [%] | inhibition at 10 µM (SK-MEL-2) [%] | inhibition at 10 µM (SK-MEL-5) [%] | inhibition at 10 µM (UACC-62) [%] | inhibition at 10 µM (OVCAR-3) [%] | inhibition at 10 µM (OVCAR-4) [%] | inhibition at 10 µM (NCI/ADR-RES) [%] | inhibition at 10 µM (786-0) [%] | further results |
| --- | --- | --- | --- | --- | --- | --- | --- | --- | --- | --- | --- | --- | --- | --- | --- | --- | --- | --- | --- | --- | --- |
| CCOC(=O)C1=C(N)N(c2ccc(C)cc2)C2=C(C(=O)CC(C)(C)C2)C1c1cccnc1 (racemic) [12e, (±)-Ethyl 2-amino-7,7-dimethyl-1–(4-methylphenyl)-5-oxo-1-phenyl-4-(pyrdin-3-yl)-1,4,5,6,7,8-hexahydroquinoline-3-carboxylate] | < 10 | < 10 | < 10 | < 10 | < 10 | < 10 | < 10 | < 10 | < 10 | < 10 | < 10 | < 10 | < 10 | < 10 | < 10 | 14 | < 10 | < 10 | < 10 | < 10 | inhibition at 10 µM (A498): < 10%; inhibition at 10 µM (CAKI-1): < 10%; inhibition at 10 µM (RXF 393): < 10%; inhibition at 10 µM (SN 12C): < 10%; inhibition at 10 µM (TK-10): < 10%; inhibition at 10 µM (UO-31): 23%; inhibition at 10 µM (MCF7): < 10%; inhibition at 10 µM (MDA-MB-231): < 10%; inhibition at 10 µM (HS 578T): < 10%; inhibition at 10 µM (BT-549): < 10%; inhibition at 10 µM (T-47D): < 10%; GI % mean (NCI 60 cancer cell lines): - ((-) = GI % mean less than 10); melting point: 261 to 263 °C |
| CCOC(=O)C1=C(N)N(c2ccccc2)C2=C(C(=O)CC(C)(C)C2)C1c1ccc([N+](=O)[O-])cc1 (racemic) [8i, (±)-Ethyl 2-amino-4–(4-nitrophenyl)-7,7-dimethyl-5-oxo-1-phenyl-1,4,5,6,7,8-hexahydroquinoline-3-carboxylate] | < 10 | 22 | < 10 | < 10 | < 10 | 21 | < 10 | < 10 | < 10 | < 10 | < 10 | 11 | < 10 | < 10 | < 10 | 33 | < 10 | < 10 | < 10 | < 10 | inhibition at 10 µM (A498): < 10%; inhibition at 10 µM (CAKI-1): 32%; inhibition at 10 µM (RXF 393): < 10%; inhibition at 10 µM (SN 12C): < 10%; inhibition at 10 µM (TK-10): < 10%; inhibition at 10 µM (UO-31): < 10%; inhibition at 10 µM (MCF7): 16%; inhibition at 10 µM (MDA-MB-231): < 10%; inhibition at 10 µM (HS 578T): < 10%; inhibition at 10 µM (BT-549): < 10%; inhibition at 10 µM (T-47D): < 10%; GI % mean (NCI 60 cancer cell lines): - ((-) = GI % mean less than 10); melting point: 164 to 166 °C |
| CCOC(=O)C1=C(N)N(c2ccccc2)C2=C(C(=O)CC(C)(C)C2)C1c1ccccc1Br (racemic) [6d, (±)-Ethyl 2-amino-4–(2-bromophenyl)-7,7-dimethyl-5-oxo-1-phenyl-1,4,5,6,7,8-hexahydroquinoline-3-carboxylate] | 34 | 25 | < 10 | < 10 | 20 | 23 | < 10 | < 10 | 17 | < 10 | < 10 | 12 | 13 | 23 | < 10 | 36 | < 10 | 12 | < 10 | 13 | inhibition at 10 µM (A498): < 10%; inhibition at 10 µM (CAKI-1): 36%; inhibition at 10 µM (RXF 393): < 10%; inhibition at 10 µM (SN 12C): < 10%; inhibition at 10 µM (TK-10): < 10%; inhibition at 10 µM (UO-31): 14%; inhibition at 10 µM (MCF7): 33%; inhibition at 10 µM (MDA-MB-231): < 10%; inhibition at 10 µM (HS 578T): < 10%; inhibition at 10 µM (BT-549): < 10%; inhibition at 10 µM (T-47D): 30%; GI % mean (NCI 60 cancer cell lines): 12%; melting point: 220 to 222 °C |
